Measured values reported in US9833497B2, “Human originated EGF domain proteins and use of the same” (CHENGDU SOURCEBIO LIMITED-LIABILITY COMPANY, priority 2013, dated 2017).

How the values were obtained:
Assay type in all cases: cell-based
[1] = system: E. coli DH5α; experiment: Antibacterial activity: MIC and growth curve against E. coli DH5α in 96-well plate; settings: minimal inhibitory concentration against E. coli DH5α; 96-well plate, 5×10^5 CFU/mL, 37° C., judged after 8 h
Summary of the method: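 Log-phase bacteria (OD600 ~0.5) resuspended in LB at 5×10^5 CFU/mL, exposed to recombinant protein at 50, 25, 12.5 μg/mL final in triplicate, 37 °C shaking at 175 rpm. OD600 read every 30 min; MIC is lowest concentration showing no growth.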

[2] = system: E. coli BL21; experiment: MIC against Gram-negative bacteria: E. coli BL21
Summary of the method: (§1)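 Broth microdilution, LB medium, final inoculum 5×10^5 CFU/mL from McFarland 0.5 cultures. Recombinant human EGF domain proteins tested in two-fold steps, n=3. MIC: lowest concentration, no growth.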

[3] = system: Pseudomonas aeruginosa; experiment: MIC against Gram-negative bacteria: Pseudomonas aeruginosa
Summary of the method: as §1

[4] = system: Klebsiella pneumonia; experiment: MIC against Gram-negative bacteria: Klebsiella pneumonia
Summary of the method: as §1

[5] = system: Enterobacter cloacae; experiment: MIC against Gram-negative bacteria: Enterobacter cloacae
Summary of the method: as §1

[6] = system: Aeromonas hydrophila; experiment: MIC against Gram-negative bacteria: Aeromonas hydrophila
Summary of the method: as §1

[7] = system: Citrobacter diversus; experiment: MIC against Gram-negative bacteria: Citrobacter diversus
Summary of the method: as §1

[8] = system: Moraxella catarrhalis; experiment: MIC against Gram-negative bacteria: Moraxella catarrhalis
Summary of the method: as §1

[9] = system: Proteus mirabilis; experiment: MIC against Gram-negative bacteria: Proteus mirabilis
Summary of the method: as §1

[10] = system: Proteus vulgaris; experiment: MIC against Gram-negative bacteria: Proteus vulgaris
Summary of the method: as §1

[11] = system: Serratia marcescens; experiment: MIC against Gram-negative bacteria: Serratia marcescens
Summary of the method: as §1

[12] = 96-well plate, 5×10^5 CFU/mL, 37° C., 10 h
[13] = 10 h cultivation at 37° C., 5×10^5 CFU/mL, two-fold serial dilution
[14] = E. coli BL21, 96-well plate, 5×10^5 CFU/mL, 37° C., 10 h
[15] = Pseudomonas aeruginosa, 96-well plate, 5×10^5 CFU/mL, 37° C., 10 h
[16] = Klebsiella pneumonia, 96-well plate, 5×10^5 CFU/mL, 37° C., 10 h
[17] = Enterobacter cloacae, 96-well plate, 5×10^5 CFU/mL, 37° C., 10 h
[18] = Aeromonas hydrophila, 96-well plate, 5×10^5 CFU/mL, 37° C., 10 h
[19] = Citrobacter diversus, 96-well plate, 5×10^5 CFU/mL, 37° C., 10 h
[20] = Moraxella catarrhalis, 96-well plate, 5×10^5 CFU/mL, 37° C., 10 h
[21] = Proteus mirabilis, 96-well plate, 5×10^5 CFU/mL, 37° C., 10 h
[22] = Proteus vulgaris, 96-well plate, 5×10^5 CFU/mL, 37° C., 10 h
[23] = Serratia marcescens, 96-well plate, 5×10^5 CFU/mL, 37° C., 10 h

PRT487 (SLCDLQPDFCLNDGKCDIMPGHGAICRCRVGENWWYRGKHCE; listed as Homo sapiens)
MIC [1]: 12.5 µg/mL | MIC against E. coli BL21 [2, 12]: 25 µg/mL | MIC against P. aeruginosa [3, 12]: 12.5 µg/mL | MIC against K. pneumonia [4, 12]: 25 µg/mL | MIC against E. cloacae [5, 12]: 12.5 µg/mL | MIC against A. hydrophila [6, 12]: 25 µg/mL | MIC against C. diversus [7, 12]: 12.5 µg/mL | MIC against M. catarrhalis [8, 12]: 25 µg/mL | MIC against P. mirabilis [9, 12]: 12.5 µg/mL | MIC against P. vulgaris [10, 12]: 50 µg/mL | MIC against S. marcescens [11, 12]: 12.5 µg/mL

PRT614 (CNCNLYGTMKQQSSCNPVTGQCECLPHVTGQDCGACDPGFYNLQSGQGCER; listed as Homo sapiens)
MIC [1]: 50 µg/mL | MIC E. coli BL21 [2, 12]: 50 µg/mL | MIC P. aeruginosa [3, 12]: 50 µg/mL | MIC K. pneumonia [4, 12]: 50 µg/mL | MIC E. cloacae [5, 12]: 12.5 µg/mL | MIC A. hydrophila [6, 12]: 12.5 µg/mL | MIC C. diversus [7, 12]: 25 µg/mL | MIC M. catarrhalis [8, 12]: 12.5 µg/mL | MIC P. mirabilis [9, 12]: 25 µg/mL | MIC P. vulgaris [10, 12]: 12.5 µg/mL | MIC S. marcescens [11, 12]: 25 µg/mL

PRT1147 (ELDACSFKPCKNNGSCINKRENWDEQAYECVCHPPFTGKNCS; listed as Homo sapiens)
MIC [1]: 50 µg/mL | MIC E. coli BL21 [2, 13]: 12.5 µg/mL | MIC P. aeruginosa [3, 13]: 50 µg/mL | MIC K. pneumonia [4, 13]: 12.5 µg/mL | MIC E. cloacae [5, 13]: 50 µg/mL | MIC A. hydrophila [6, 13]: 25 µg/mL | MIC C. diversus [7, 13]: 25 µg/mL | MIC M. catarrhalis [8, 13]: 12.5 µg/mL | MIC P. mirabilis [9, 13]: 25 µg/mL | MIC P. vulgaris [10, 13]: 50 µg/mL | MIC S. marcescens [11, 13]: 25 µg/mL

PRT115 (SRNPCSSSPCRGGATCVLGPHGKNYTCRCPQGYQLDSSQLDCV; listed as Homo sapiens)
MIC [1]: 12.5 µg/mL | MIC (μg/mL) E. coli BL21 [2, 14]: 50 µg/mL | MIC (μg/mL) P. aeruginosa [3, 15]: 12.5 µg/mL | MIC (μg/mL) K. pneumonia [4, 16]: 50 µg/mL | MIC (μg/mL) E. cloacae [5, 17]: 25 µg/mL | MIC (μg/mL) A. hydrophila [6, 18]: 12.5 µg/mL | MIC (μg/mL) C. diversus [7, 19]: 25 µg/mL | MIC (μg/mL) M. catarrhalis [8, 20]: 50 µg/mL | MIC (μg/mL) P. mirabilis [9, 21]: 12.5 µg/mL | MIC (μg/mL) P. vulgaris [10, 22]: 12.5 µg/mL | MIC (μg/mL) S. marcescens [11, 23]: 12.5 µg/mL

PRT697 (DVDECAQEPPPCGPGRCDNTAGSFHCACPAGFRSRGPGAPCQ; listed as Homo sapiens)
MIC [1]: 25 µg/mL | MIC E. coli BL21 [2, 12]: 25 µg/mL | MIC P. aeruginosa [3, 12]: 50 µg/mL | MIC K. pneumonia [4, 12]: 12.5 µg/mL | MIC E. cloacae [5, 12]: 50 µg/mL | MIC A. hydrophila [6, 12]: 25 µg/mL | MIC C. diversus [7, 12]: 12.5 µg/mL | MIC M. catarrhalis [8, 12]: 50 µg/mL | MIC P. mirabilis [9, 12]: 12.5 µg/mL | MIC P. vulgaris [10, 12]: 25 µg/mL | MIC S. marcescens [11, 12]: 25 µg/mL

PRT1051 (EQKLCKLRKGNCSSTVCGQDLQSHLCMCAEGYALSRDRKYCE; listed as Homo sapiens)
MIC [1]: 50 µg/mL | MIC E. coli BL21 [2, 13]: 12.5 µg/mL | MIC P. aeruginosa [3, 13]: 25 µg/mL | MIC K. pneumonia [4, 13]: 12.5 µg/mL | MIC E. cloacae [5, 13]: 25 µg/mL | MIC A. hydrophila [6, 13]: 12.5 µg/mL | MIC C. diversus [7, 13]: 12.5 µg/mL | MIC M. catarrhalis [8, 13]: 12.5 µg/mL | MIC P. mirabilis [9, 13]: 50 µg/mL | MIC P. vulgaris [10, 13]: 12.5 µg/mL | MIC S. marcescens [11, 13]: 50 µg/mL

PRT951 (WTDACLSHPCANGSTCTTVANQFSCKCLTGFTGQKCE; listed as Homo sapiens)
MIC [1]: 25 µg/mL | MIC ([2]; E. coli BL21, 10 h cultivation at 37° C.): 25 µg/mL | MIC ([3]; P. aeruginosa, 10 h cultivation at 37° C.): 25 µg/mL | MIC ([4]; K. pneumonia, 10 h cultivation at 37° C.): 25 µg/mL | MIC ([5]; E. cloacae, 10 h cultivation at 37° C.): 12.5 µg/mL | MIC ([6]; A. hydrophila, 10 h cultivation at 37° C.): 12.5 µg/mL | MIC ([7]; C. diversus, 10 h cultivation at 37° C.): 25 µg/mL | MIC ([8]; M. catarrhalis, 10 h cultivation at 37° C.): 12.5 µg/mL | MIC ([9]; P. mirabilis, 10 h cultivation at 37° C.): 25 µg/mL | MIC ([10]; P. vulgaris, 10 h cultivation at 37° C.): 50 µg/mL | MIC ([11]; S. marcescens, 10 h cultivation at 37° C.): 100 µg/mL

PRT1259 (CAVNNGGCDRTCKDTATGVRCSCPVGFTLQPDGKTC; listed as Homo sapiens)
MIC [1]: 25 µg/mL | MIC against E. coli BL21 [2, 14]: 50 µg/mL | MIC against P. aeruginosa [3, 15]: 25 µg/mL | MIC against K. pneumonia [4, 16]: 12.5 µg/mL | MIC against E. cloacae [5, 17]: 25 µg/mL | MIC against A. hydrophila [6, 18]: 50 µg/mL | MIC against C. diversus [7, 19]: 12.5 µg/mL | MIC against M. catarrhalis [8, 20]: 50 µg/mL | MIC against P. mirabilis [9, 21]: 12.5 µg/mL | MIC against P. vulgaris [10, 22]: 50 µg/mL | MIC against S. marcescens [11, 23]: 12.5 µg/mL

PRT1453 (DVDECAEPGLSHCHALATCVNVVGSYLCVCPAGYRGDGWHCE; listed as Homo sapiens)
MIC [1]: 25 µg/mL | MIC against E. coli BL21 ([2]; E. coli BL21, 5×10^5 CFU/mL, 10 h cultivation at 37° C.): 12.5 µg/mL | MIC against P. aeruginosa ([3]; Pseudomonas aeruginosa, 5×10^5 CFU/mL, 10 h cultivation at 37° C.): 25 µg/mL | MIC against K. pneumonia ([4]; Klebsiella pneumonia, 5×10^5 CFU/mL, 10 h cultivation at 37° C.): 50 µg/mL | MIC against E. cloacae ([5]; Enterobacter cloacae, 5×10^5 CFU/mL, 10 h cultivation at 37° C.): 25 µg/mL | MIC against A. hydrophila ([6]; Aeromonas hydrophila, 5×10^5 CFU/mL, 10 h cultivation at 37° C.): 12.5 µg/mL | MIC against C. diversus ([7]; Citrobacter diversus, 5×10^5 CFU/mL, 10 h cultivation at 37° C.): 25 µg/mL | MIC against M. catarrhalis ([8]; Moraxella catarrhalis, 5×10^5 CFU/mL, 10 h cultivation at 37° C.): 50 µg/mL | MIC against P. mirabilis ([9]; Proteus mirabilis, 5×10^5 CFU/mL, 10 h cultivation at 37° C.): 12.5 µg/mL | MIC against P. vulgaris ([10]; Proteus vulgaris, 5×10^5 CFU/mL, 10 h cultivation at 37° C.): 25 µg/mL | MIC against S. marcescens ([11]; Serratia marcescens, 5×10^5 CFU/mL, 10 h cultivation at 37° C.): 12.5 µg/mL

PRT1050 (HFSRCPKQYKHYCIKGRCRFVVAEQTPSCVCDEGYIGARCE; listed as Homo sapiens)
MIC [1]: 25 µg/mL | MIC E. coli BL21 [2, 13]: 12.5 µg/mL | MIC P. aeruginosa [3, 13]: 25 µg/mL | MIC K. pneumonia [4, 13]: 12.5 µg/mL | MIC E. cloacae [5, 13]: 25 µg/mL | MIC A. hydrophila [6, 13]: 25 µg/mL | MIC C. diversus [7, 13]: 12.5 µg/mL | MIC M. catarrhalis [8, 13]: 12.5 µg/mL | MIC P. mirabilis [9, 13]: 12.5 µg/mL | MIC P. vulgaris [10, 13]: 50 µg/mL | MIC S. marcescens [11, 13]: 12.5 µg/mL

PRT486 (EANPCKFQACNEFSECLVNPWSGEAKCRCFPGYLSVEERPCQ; listed as Homo sapiens)
MIC [1]: 12.5 µg/mL | MIC against E. coli BL21 [2, 12]: 50 µg/mL | MIC against P. aeruginosa [3, 12]: 12.5 µg/mL | MIC against K. pneumonia [4, 12]: 50 µg/mL | MIC against E. cloacae [5, 12]: 12.5 µg/mL | MIC against A. hydrophila [6, 12]: 50 µg/mL | MIC against C. diversus [7, 12]: 12.5 µg/mL | MIC against M. catarrhalis [8, 12]: 50 µg/mL | MIC against P. mirabilis [9, 12]: 12.5 µg/mL | MIC against P. vulgaris [10, 12]: 50 µg/mL | MIC against S. marcescens [11, 12]: 25 µg/mL
